In series [1] the test system is MSSA Staph. aureus Smith 819. In words: MIC (microbiological activity). It is filed as cell-based. To be noted: Staphylococcus aureus.
A further series has as its system MRSA Staph. aureus 3817. In words: MIC (microbiological activity). It is filed as cell-based. As to conditions: Staphylococcus aureus.
The subject of series [2] is CR-BSI due to gram-positive bacterial pathogens. In words: Catheter-related blood stream infection (CR-BSI) trial: efficacy. As to conditions: microbiological ITT population; dalbavancin 1000 mg day 1 + 500 mg day 8 IV; vancomycin 1000 mg IV every 12 hours. The series is classed as in vivo, human. The text has this:
This study evaluated the safety and efficacy (clinical and microbiological) of a weekly dosing regimen of dalbavancin in the treatment of adults with catheter-related blood stream infection (CR-BSI) due to gram-positive bacterial pathogens, relative to the standard care of treatment, vancomycin.
Patients with CR-BSI due to suspected or known Gram-positive pathogen(s) who met the inclusion/exclusion criteria were randomized to one of two treatment arms in this open-label, comparative, multi-center study. Dalbavancin was administered once weekly in weekly dalbavancin and comparator (vancomycin) was administered daily in vancomycin. Catheter removal was required for patients with Staphylococcus aureus infection; catheter management was left to the Investigator's discretion for patients with coagulase-negative staphylococci (CoNS) infection. Efficacy was clinically based on the improvement or resolution of clinical signs and symptoms of CR-BSI such that no additional antibacterials were warranted, and microbiologically on the eradication or presence of the baseline or other pathogens. […]
Efficacy was evaluated based on clinical and microbiological responses.
For the primary efficacy analysis, 95% confidence intervals were also determined, and for prognostic factor analyses using the primary efficacy variable, logistic regression was used.

The next series deals with gram positive bacteria. Briefly: MIC by broth microdilution (NCCLS), with or without 30% bovine serum (Example 19). The series is classed as cell-based. The method, then: (§1) The compounds were prepared according to the examples above and the methods described in U.S. Patent Application Publication No. 2004/0142883. Individual dalbavancin compounds were purified by HPLC. […] Before dissolution, each sample was analyzed by HPLC and quantified. […] Louis, Mo.), Gentamycin (GE) (Sigma Chemical Co., St. Louis, Mo.), Penicillin G (Pen.G) (Sigma Chemical Co., St. Louis, Mo.), and Amphotericin B (Amph.B) (Sigma Chemical Co., St. Louis, Mo.). The microorganisms used were reference strains obtained from the American Type Culture Collection (ATCC) (Rockville, Md.), SmithKline and French Laboratories (SKF), and the Upjohn Company (UC) (Kalamazoo, Mich.).
(In general: Dilution methods test growth across graded concentrations, often in twofold steps.)

In series [3] the test system is gram-negative bacteria. The series is described as above. The series is classed as cell-based. On the procedure: as §1
For a further series, the system named is gram-positive bacteria. Briefly: MIC by broth microdilution (NCCLS), IsoB0 and reference compounds. The series is classed as cell-based. The method, then: Müller Hinton broth (Difco Laboratories, Detroit, Mich., USA) adjusted with CaCl2 and MgCl2 to a final concentrations of 20 mg/L and 10 mg/L respectively.
Adult bovine serum (BS) (batch A05123-159 PAA Laboratories GmBH Haidmannweg Pasching Austria).
The microorganisms used are reference standard strains from the American Type Culture Collection (ATCC, Rockville, USA), Smith Kline and French Laboratories (SKF) and the Upjohn Company (UC, Kalamazoo, Mich., USA).
(§2) MICs were determined by the broth microdilution methodology following the standard NCCLS procedure, with or without 30% bovine serum, using bacterial inocula of approximately 5×10^5 CFU/mL. Tests were read after 20-24 h incubation at 35° C.

Series [4] concerns Candida albicans SKF 2270. Briefly: MIC by broth microdilution (NCCLS), with or without 30% bovine serum (Example 19). It is filed as cell-based. To be noted: Candida albicans, SKF2270. On the procedure:
MICs were determined by the broth microdilution methodology following the standard NCCLS procedure (NCCLS Document M7-A6, Vol. 23, No. 2, “Methods for dilution antimicrobial susceptibility tests for bacteria that grow aerobically.” Approved Guideline. January 2003, which can be herein incorporated by reference in its entirety), with or without 30% adult bovine serum (BS) (PAA Laboratories GmBH, Haidmannweg Pasching Austria), using bacterial innocula at approximately 5×10^5 CFU/ml. The media employed included cation-adjusted Müller Hinton broth (Difco Laboratories, Detroit, Mich.) that was used that was adjusted with CaCl2 and MgCl2 to a final concentration of 20 mg/L and 10 mg/L, respectively. Tests were read following 20-24 hours of incubation at 35° C.

Series [5] concerns gram-negative bacteria. Briefly: MIC by broth microdilution (NCCLS), IsoB0 and reference compounds. The series is classed as cell-based. The method, then: as §2
The next series has as its system Candida albicans SKF2270. The description is as above. The series is classed as cell-based.
Another series addresses human α-glycoprotein. In words: Protein binding by isothermal titration microcalorimetry. To be noted: 25° C. On the technique in general: ITC needs no label: the signal is the heat of the interaction.
Series [6] is described as follows: ESI mass spectroscopy of multimers in solution. The series is classed as physicochemical. As to conditions: ESI-MS.
Method: Experiments were performed using an Applied Biosystem API III+ mass spectrometer equipped with a TurbolonSpray source, a Triple Quadrupole analyzer, operating in positive ion mode.
The mass spectra were obtained in electrospray positive mode on a Finnigan LCQ^Deca ion trap instrument previously tuned and calibrated in electrospray mode using Ultramark 1621, caffeine and MRFA (L-metionyl-arginyl-phenilalanyl-arginine).
Where [7] appears, read: Enterococcus faecalis, ATCC7080.
The mark [8] stands for this setting: Enterococcus faecalis, ATCC29212.
The mark [9] stands for this setting: Staphylococcus aureus, ATCC19636.
Where [10] appears, read: Staphylococcus aureus, ATCC29213.
[11] abbreviates: Staphylococcus epidermidis, ATCC12228.

Converted amounts (≈) assume the structure as drawn. Read-outs that look alike come from different tables or passages of the source.

Method for human α-glycoprotein: For comparison, similar experiments with some necessary modifications were performed using teicoplanin.
Teicoplanin was studied with human albumin and α-glycoprotein.
Integrated heat effects, after correction for heats of dilution, were analyzed by non-linear regression using a simple single-site binding model with the standard Microcal ORIGIN software package. Raw data (μcal/sec) for each injection were integrated to give the total heat effect per addition, then divided by amount of injectant to give kcal/mole of injectant. The same integration was applied for control dilution effects, and this was subtracted from the actual titration data. This provided a differential of the binding curve in which the extent of binding is proportional to the total heat liberated (or absorbed). This was then analyzed by non-linear regression methods in terms of various standard binding models. The simplest model assumes simple non-competitive binding equilibrium, and gives three parameters:

`CN[C@H](CC(C)C)C(=O)N[C@H]1C(=O)N[C@@H](CC(N)=O)C(=O)N[C@H]2C(=O)N[C@H]3C(=O)N[C@H](C(=O)N[C@H](C(=O)O)c4cc(O)cc(O)c4-c4cc3ccc4O)[C@H](O)c3ccc(c(Cl)c3)Oc3cc2cc(c3O[C@@H]2O[C@H](CO)[C@@H](O)[C@H](O)[C@H]2O[C@H]2C[C@](C)(N)[C@H](O)[C@H](C)O2)Oc2ccc(cc2Cl)[C@H]1O` [Vancomycin, vancomycin, reference compound]: the MIC in series [1] was found to be 0.5 µg/mL (≈ 0.345 µM); with MRSA Staph. aureus 3817, 0.5 µg/mL (≈ 0.345 µM); in the series with gram positive bacteria, 1 µg/mL (≈ 0.69 µM); in the series with gram positive bacteria (setting [7]), 1 µg/mL (≈ 0.69 µM); against gram positive bacteria (setting [8]), 2 µg/mL (≈ 1.38 µM); in the series on gram positive bacteria (setting [9]) it was 1 µg/mL (≈ 0.69 µM). The MIC with gram positive bacteria (setting [10]) was 2 µg/mL (≈ 1.38 µM); with gram positive bacteria (setting [11]), 2 µg/mL (≈ 1.38 µM); in the series on gram positive bacteria (Streptococcus pneumoniae, UC41), 0.5 µg/mL (≈ 0.345 µM); against gram-negative bacteria [3], more than 128 µg/mL; against gram-negative bacteria [3] (Escherichia coli), more than 128 µg/mL; against gram-negative bacteria [3] (Escherichia coli, ATCC25922), more than 128 µg/mL. In addition, the minimal inhibitory concentration (MIC) against gram-negative bacteria [3] (Proteus vulgaris, ATCC881) is more than 128 µg/mL; against gram-positive bacteria (setting [7]) it was 1 µg/mL (≈ 0.69 µM); with gram-positive bacteria (setting [8]) it was 2 µg/mL (≈ 1.38 µM); in the series on gram-positive bacteria (setting [9]), 1 µg/mL (≈ 0.69 µM); against gram-positive bacteria (setting [10]), 2 µg/mL (≈ 1.38 µM); against gram-positive bacteria (setting [11]), 2 µg/mL (≈ 1.38 µM). Besides, the MIC against gram-positive bacteria (Streptococcus pneumoniae, UC41) is 0.5 µg/mL (≈ 0.345 µM); against gram-positive bacteria (Streptococcus pyogenes) it was 1 µg/mL (≈ 0.69 µM); in series [4], more than 128 µg/mL; against gram-negative bacteria [5], more than 128 µg/mL; against gram-negative bacteria [5] (Escherichia coli) it was more than 128 µg/mL; against gram-negative bacteria [5] (Escherichia coli, ATCC25922) it was more than 128 µg/mL. Moreover, the MIC with gram-negative bacteria [5] (Proteus vulgaris, ATCC881) is more than 128 µg/mL; against Candida albicans SKF2270, more than 128 µg/mL. Besides, the “overall response success rate at TOC” value in series [2] is listed as 50.0%.
With teicoplanin, the “apparent binding affinity Ka, α-glycoprotein” value at human α-glycoprotein is given as 0.07 (±0.01) × 10^5M^−1. In [6], the multimers in solution entry is given as “does not show multimeric complexes”.

One may read the MIC as the lowest concentration that inhibits growth of the organism.

Values taken from patent US20170190744A1 (Vicuron Pharmaceuticals, Inc., priority 2015, published 2017).
